From patent publication US20030083315A1, “Human chymase inhibitors” (priority 2000, published 2003)

Assays:
[1] = target: T1, recombinant human mast cell chymase (Homo sapiens, UniProt P23946); experiment: Inhibition of enzyme activity of recombinant human mast cell chymase; assay type: biochemical; settings: active-type human mast cell chymase, substrate succinyl-alanyl-histidyl-prolyl-phenylalanylparanitroanilide 0.5 mM, room temperature 5 min, absorption at 405
T1 construct: made in house; host or cells: insect cell (Tn 5) infected with recombinant baculovirus
T1 sequence (P23946 22-247): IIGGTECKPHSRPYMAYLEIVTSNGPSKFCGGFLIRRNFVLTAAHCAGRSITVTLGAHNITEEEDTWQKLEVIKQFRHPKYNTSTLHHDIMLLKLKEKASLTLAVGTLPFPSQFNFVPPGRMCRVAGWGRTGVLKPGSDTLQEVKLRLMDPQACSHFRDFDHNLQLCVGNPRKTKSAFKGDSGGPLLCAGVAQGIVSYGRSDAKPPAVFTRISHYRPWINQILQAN
Procedure: A recombinant pro-type human mast cell chymase was prepared according to the report by Urata et al., Journal of Biological Chemistry 17173, Vol. 266 (1991). That is, the product was purified from the supernatant of the culture broth of insect cell (Tn 5) infected with a recombinant baculovirus containing a cDNA encoding a human mast cell chymase by heparin sepharose (manufactured by Pharmacia Co.). The obtained chymase was further activated according to the report of Murakami et al., Journal of Biological Chemistry, 2218, Vol. 270 (1995), and then it was purified by heparin sepharose to yield an active-type human mast cell chymase.
To 50 μl of buffer A (0.5 to 3.0 M NaCl, 50 mM tris-HCl, pH 8.0) containing 1 to 5 ng of the active-type human mast cell chymase obtained by Example 19 was added 2 μl of a DMSO solution containing a compound of the present invention, and the mixture was made to react at room temperature for 5 min after the addition of 50 μl of the buffer A containing 0.5 mM of succinyl-alanyl-histidyl-prolyl-phenylalanylparanitroanilide (Bacchem Co.) as a substrate. The inhibition activity was determined by measuring the variation of the absorption at 405 nm with the passage of time.

[2] = Blood concentration after forced oral administration into rat stomach; assay type: in vivo; settings: SD male rat, 30 mg/kg forced into the stomach under starvation, serum, unchanged compound by HPLC; for AUC: read-out: AUC (extrapolation)
Procedure: By using a SD male rat, a compound having the compound number of 121, 127 or 363 was forcedly administered at a dose of 30 mg/kg into the stomach under starvation, and blood samples were taken out at 30 min, 1 hr, 2 hr, 4 hr and 8 hr after the administration. Directly after the collection of the blood samples, the serum component was separated, the compound of the present invention was extracted by a general method of solid extraction, and the obtained sample was subjected to HPLC analysis by using an ODS column to measured the amount of the unchanged compound.

[3] = In vitro metabolic test using hepatic microsome (Ms); assay type: in vitro ADME; settings: hepatic microsome 1.0 mg/mL, substrate 5.0 μM, 37° C.; for MR (maximum speed of metabolism): NADPH 1.0 mM
Procedure: Letting the amount of the unchanged body at the initial concentration (reaction time 0 min) 100%, the speed of metabolism is determined from the amount of the decrease of the unchanged body at each reaction time, and the maximum speed of metabolism (MR) is evaluated.
MR=(the substrate concentration at reaction time 0 min−the substance concentration after the reaction)÷reaction time÷protein concentration (nmol/min/mg-protein)

| SMILES | IC50 [1] [nM] | Cmax [2] [µg/mL] | AUC [2] [µg·h/mL] | Remaining Rate (%) of Substrate at 30 min [3] [%] | MR (maximum speed of metabolism) [3] [nmol/min/mg-protein] |
| --- | --- | --- | --- | --- | --- |
| COc1ccc2c(c1)nc(SCCCC(=O)O)n2Cc1cccc2ccccc12 [Compound No. 127, 4-((1-((1-naphthyl)methyl)-5-methoxybenzimidazole)-2-ylthio)butyric acid] | 1 to 10 | 76 | 181 | 21.6 | 0.190 |
| CCOc1ccc2c(c1)nc(SCCCC(=O)O)n2Cc1cccc2ccccc12 [Compound No. 128, 4-(1-((1-naphthyl)methyl)-5-ethoxybenzimidazole-2-ylthio)butyric acid] | 10 to 100 |  |  |  |  |
| O=C(O)CCCSc1nc2cc(F)c(F)cc2n1Cc1cccc2ccccc12 [Compound No. 131, 4-(1-((1-naphthyl)methyl)-5,6-difluorobenzimidazole-2-ylthio)butyric acid] | 10 to 100 |  |  |  |  |
| Cc1ccc(C)c(Cn2c(SCCCC(=O)O)nc3cc(C#N)ccc32)c1 [Compound No. 337, 4-(1-((2,5-dimethylphenyl)methyl)-5-cyanobenzimidazole-2-ylthio)butyric Acid] | 10 to 100 |  |  |  |  |
| N#Cc1ccc2c(c1)nc(SCCCC(=O)O)n2Cc1cccc2ccccc12 [Compound No. 363, 4-(1-((1-naphthyl)methyl)-5-cyanobenzimidazole-2-ylthio)butyric acid] | 10 to 100 | 77 | 182 | 57.6 | 0.147 |
| Cc1cccc2cccc(Cn3c(SCCCC(=O)O)nc4ccccc43)c12 [Compound No. 492, 4-(1-((8-methyl-1-naphthyl)methyl)benzimidazole-2-ylthio)butyric Acid] | 1 to 10 |  |  |  |  |
| Cc1cc2nc(S(=O)(=O)CCCC(=O)O)n(Cc3cccc4ccccc34)c2cc1C [Compound No. 498, 4-(1-((1-naphthyl)methyl)-5,6-dimethylbenzimidazole-2-ylsulfonyl)butyric acid] | 10 to 100 |  |  |  |  |
| O=C(O)CCCCSc1nc2ccccc2n1Cc1cccc2ccccc12 [compound 497, 5-(1-((1-naphthyl)methyl)-benzimidazole-2-ylthio)valeric acid] | 10 to 100 |  |  |  |  |

The next lines start with the values.

| IC50 [1] [nM] | Cmax [2] [µg/mL] | AUC [2] [µg·h/mL] | Remaining Rate (%) of Substrate at 30 min [3] [%] | MR (maximum speed of metabolism) [3] [nmol/min/mg-protein] | SMILES |
| --- | --- | --- | --- | --- | --- |
| 1 to 10 | 122 | 226 | 56.6 | 0.235 | O=C(O)CCCSc1nc2ccccc2n1Cc1cccc2ccccc12 [Compound No. 121, 4-(1-((1-naphthyl)methyl)benzimidazole-2-ylthio)butyric acid] |
| 10 to 100 |  |  |  |  | O=C(O)CCCSc1nc2cc(C(F)(F)F)ccc2n1Cc1cccc2ccccc12 [Compound No. 126, 4-(1-((1-naphthyl)methyl)-5-trifluoromethylbenzimidazole-2-ylthio)butyric Acid] |
| 1 to 10 |  |  |  |  | Cc1cc2nc(SCCCC(=O)O)n(Cc3cccc4ccccc34)c2cc1C [Compound No. 129, 4-(1-((1-naphthyl)methyl)-5,6-dimethylbenzimidazole-2-ylthio)butyric acid] |
| 1 to 10 |  |  |  |  | Cc1cc2nc(SCCCC(=O)O)n(Cc3cccc4cccc(C)c34)c2cc1C [Compound No. 493, 4-(1-((8-methyl-1-naphthyl)methyl)-5,6-dimethylbenzimidazole-2-ylthio)-butyric Acid] |
| 10 to 100 |  |  |  |  | CC(C)(CC(=O)O)C(=O)CSc1nc2ccccc2n1Cc1cccc2ccccc12 [Compound No. 494, 5-(1-((1-nanhthyl)methyl)benzimidazole-2-ylthio)-4-oxo-3,3-dimethylvaleric Acid] |
| 10 to 100 |  |  |  |  | COc1ccc2c(c1)nc(SCCCC(=O)O)n2Cc1cc(C)ccc1C [Compound No. 495, 4-(1-((2,5-dimethylphenil)methyl)-5-methoxybenzimidazole-2-ylthio)butyric Acid] |
| 10 to 100 |  |  |  |  | O=C(O)CCSc1nc2ccccc2n1Cc1cccc2ccccc12 [Compound No. 496, 3-(1-((1-naphthyl)methyl)-benzimidazole-2-ylthio)propanoic acid] |
